These molecules were tested on level of uric acid in the plasma (assay: Hypouricemic effect (oxonic acid-induced hyperuricemic beagle dogs)). Settings: hyperuricemic beagle dog, oral, 10 mg/kg, 8 hours after administration.
Assay type: in vivo
Method: Potassium oxonate (50 mg/kg) was subcutaneously administrated before and 4 hours after compound administration. After the blood was collected from the cephalic vein at 8 hours after administration, the plasma was separated. The level of uric acid in the plasma sample was measured by LC-MS/MS method and the percentage of hypouricemic effect was determined by the following expression: Percentage of hypouricemic effect (%)=(Level of uric acid of the control animal−Level of uric acid of the test compound-administered animal)×100/Level of uric acid of the control animal.

SMILES	hypouricemic effect
Cc1nc(-c2ccc(OCC(C)C)c(-n3cnnn3)c2)sc1C(=O)O [Compound No. 25, 4-methyl-2-[4-(2-methylpropoxy)-3-(1H-1,2,3,4-tetrazol-1-yl)phenyl]-1,3-thiazole-5-carboxylic acid]	showed a hypouricemic effect

These molecules were tested against T1, oxidase-type xanthine oxidoreductase (from buttermilk) (Bos taurus, UniProt P80457) (assay: xanthine oxidase inhibitory activity (change of absorbance at 290 nm)). Settings: xanthine substrate, read-out: Inhibitor Activity.
T1 construct: purchased Calbiochem Novabiochem Corp; host or cells: buttermilk (natural source)
Assay type: biochemical
Method: Test compound was dissolved in DMSO (manufactured by Sigma Co.) to prepare a 20 mM solution. The solution was adjusted to an optimal concentration and used for the testing.
This evaluation was carried out by measuring oxidase-type xanthine oxidoreductase activity. Concretely, a xanthine (manufactured by Sigma Co.) solution was prepared at 10 mM using a 20 mM sodium hydroxide solution and then mixed with 100 mM phosphate buffer to adjusted to 30 μM. 75 μL of the solution was added to each well of the 96-well plate. The test compound diluted with DMSO at 100 times of a final concentration was added to each well at 1.5 μL per well. […] Immediately after mixing, the change of absorbance at 290 nm was measured for 5 minutes. The enzyme activity of DMSO solution without test compound was used as 100% control, and the inhibitory rate of the test compounds was calculated. Fifty percent inhibitory concentration of the test compounds on the oxidase-type xanthine oxidoreductase activity was calculated by fitting to the dose-response curve.

T1 sequence (P80457 whole entry): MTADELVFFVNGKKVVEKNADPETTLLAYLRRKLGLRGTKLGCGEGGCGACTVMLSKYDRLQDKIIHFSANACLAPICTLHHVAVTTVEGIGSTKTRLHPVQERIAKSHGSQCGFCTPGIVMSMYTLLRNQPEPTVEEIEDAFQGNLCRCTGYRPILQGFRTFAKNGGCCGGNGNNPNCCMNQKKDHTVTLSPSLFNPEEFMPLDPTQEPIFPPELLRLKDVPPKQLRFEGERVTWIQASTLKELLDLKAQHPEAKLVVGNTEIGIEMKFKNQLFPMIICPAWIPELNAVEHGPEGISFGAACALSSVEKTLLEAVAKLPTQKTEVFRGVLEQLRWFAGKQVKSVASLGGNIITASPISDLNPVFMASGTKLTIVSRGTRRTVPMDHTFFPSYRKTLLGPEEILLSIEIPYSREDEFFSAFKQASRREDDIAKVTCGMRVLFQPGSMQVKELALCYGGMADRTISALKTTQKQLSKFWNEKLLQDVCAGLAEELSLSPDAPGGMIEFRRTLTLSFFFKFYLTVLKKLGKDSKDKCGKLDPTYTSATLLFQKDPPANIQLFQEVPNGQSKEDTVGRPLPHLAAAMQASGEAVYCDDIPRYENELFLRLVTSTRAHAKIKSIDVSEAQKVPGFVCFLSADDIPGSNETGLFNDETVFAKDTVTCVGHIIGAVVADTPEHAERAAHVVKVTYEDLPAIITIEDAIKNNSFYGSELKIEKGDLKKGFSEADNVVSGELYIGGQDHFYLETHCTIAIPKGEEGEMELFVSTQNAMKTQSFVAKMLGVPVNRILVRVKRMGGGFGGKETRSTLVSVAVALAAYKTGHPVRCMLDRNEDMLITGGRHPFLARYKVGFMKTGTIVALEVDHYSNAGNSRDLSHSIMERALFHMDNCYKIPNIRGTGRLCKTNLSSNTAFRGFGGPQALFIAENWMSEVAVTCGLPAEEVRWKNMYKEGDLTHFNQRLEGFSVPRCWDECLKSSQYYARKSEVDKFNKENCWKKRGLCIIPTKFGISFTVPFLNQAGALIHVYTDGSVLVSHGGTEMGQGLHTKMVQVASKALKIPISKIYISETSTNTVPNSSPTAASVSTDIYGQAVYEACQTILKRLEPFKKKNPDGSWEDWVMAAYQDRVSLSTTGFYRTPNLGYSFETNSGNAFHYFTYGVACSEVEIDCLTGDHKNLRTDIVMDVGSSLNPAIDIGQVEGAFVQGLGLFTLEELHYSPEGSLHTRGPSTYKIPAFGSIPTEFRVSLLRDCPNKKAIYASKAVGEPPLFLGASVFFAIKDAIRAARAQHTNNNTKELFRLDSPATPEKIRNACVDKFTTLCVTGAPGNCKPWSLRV

IC50	SMILES
1 to 5 nM	Cc1cc(Oc2ccc(-c3nc(C)c(C(=O)O)s3)cc2-n2cnnn2)ccc1F [compound 40, 2-[4-(4-fluoro-3-methylphenoxy)-3-(1H-1,2,3,4-tetrazol-1-yl)phenyl]-4-methyl-1,3-thiazole-5-carboxylic acid]
5 to 10 nM	Cc1nc(-c2ccc(OC3CCCCC3)c(-n3ccnc3)c2)sc1C(=O)O [compound 6, 2-[4-(cyclohexyloxy)-3-[1H-imidazol-1-yl)phenyl]-4-methyl-1,3-thiazole-5-carboxylic acid]
> 10 nM	Cc1nc(-c2ccc(Oc3ccccc3)c(-n3ccnn3)c2)sc1C(=O)O [compound 22, 4-methyl-2-[4-phenoxy-3-(1H-1,2,3-triazol-1-yl)phenyl]-1,3-thiazole-5-carboxylic acid]
1 to 5 nM	Cc1nc(-c2ccc(OC(C)C)c(-n3cnnn3)c2)sc1C(=O)O [Compound No. 24, 4-methyl-2-[4-(propan-2-yloxy)-3-(1H-1,2,3,4-tetrazole-1-yl)phenyl]-1,3-thiazole-5-carboxylic acid]
1 to 5 nM	Cc1nc(-c2ccc(SCC(C)C)c(-n3cnnn3)c2)sc1C(=O)O [Compound No. 49, 4-methyl-2-{4-[(2-methylpropyl)sulfanyl]-3-(1H-1,2,3,4-tetrazol-1-yl)phenyl}-1,3-thiazole-5-carboxylic acid]
1 to 5 nM	COc1cccc(F)c1Oc1ccc(-c2nc(C)c(C(=O)O)s2)cc1-n1cnnn1 [compound 43, 2-[4-(2-fluoro-6-methoxyphenoxy)-3-(1H-1,2,3,4-tetrazol-1-yl)phenyl]-4-methyl-1,3-thiazole-5-carboxylic acid]
5 to 10 nM	Cc1nc(-c2ccc(OC3CCCC3)c(-n3ccnc3)c2)sc1C(=O)O [Compound No. 5, 2-[4-(cyclopentyloxy)-3-(1H-imidazol-1-yl)phenyl]-4-methyl-1,3-thiazole-5-carboxylic acid]
1 to 5 nM	Cc1nc(-c2ccc(Oc3cccc(F)c3)c(-n3cnnn3)c2)sc1C(=O)O [compound 37, 2-[4-(3-fluorophenoxy)-3-(1H-1,2,3,4-tetrazol-1-yl)phenyl]-4-methyl-1,3-thiazole-5-carboxylic acid]
1 to 5 nM	Cc1nc(-c2ccc(Oc3ccccc3Cl)c(-n3cnnn3)c2)sc1C(=O)O [compound 39, 2-[4-(2-chlorophenoxy)-3-(1H-1,2,3,4-tetrazol-1-yl)phenyl]-4-methyl-1,3-thiazole-5-carboxylic acid]
1 to 5 nM	Cc1nc(-c2ccc(SC(C)C)c(-n3cnnn3)c2)sc1C(=O)O [compound 50, 4-methyl-2-[4-(propan-2-ylsulfanyl)-3-(1H-1,2,3,4-tetrazol-1-yl)phenyl]-1,3-thiazole-5-carboxylic acid]
1 to 5 nM	Cc1nc(-c2ccc(OCC(C)C)c(-n3cnc4ccccc43)c2)sc1C(=O)O [compound 11, 2-[3-(1H-1,3-benzodiazol-1-yl)-4-(2-methylpropoxy)phenyl]-4-methyl-1,3-thiazole-5-carboxylic acid]
1 to 5 nM	Cc1nc(-c2ccc(Oc3c(F)cccc3F)c(-n3cnnn3)c2)sc1C(=O)O [compound 36, 2-[4-(2,6-difluorophenoxy)-3-(1H-1,2,3,4-tetrazol-1-yl)phenyl]-4-methyl-1,3-thiazole-5-carboxylic acid]
1 to 5 nM	CCN(CC)c1ccc(-c2nc(C)c(C(=O)O)s2)cc1-n1cnnn1 [Compound No. 52, 2-[4-(N,N-diethylamino)-3-(1H-1,2,3,4-tetrazol-1-yl)phenyl]-4-methyl-1,3-thiazole-5-carboxylic acid]
1 to 5 nM	Cc1nc(-c2ccc(OCC(C)(C)C)c(-n3ccnn3)c2)sc1C(=O)O [compound 18, 2-[4-(2,2-dimethylpropoxy)-3-(1H-1,2,3-triazol-1-yl)phenyl]-4-methyl-1,3-thiazole-5-carboxylic acid]
1 to 5 nM	Cc1nc(-c2ccc(Oc3ccccc3)c(-n3cnnn3)c2)sc1C(=O)O [Compound No. 33, 4-methyl-2-[4-phenoxy-3-(1H-1,2,3,4-tetrazol-1-yl)phenyl]-1,3 thiazole-5-carboxylic acid]
